Measurements published in patent US4804502A, “Vitamin D compounds” (priority 1988, dated 1989).
Like-named read-outs stand apart in the source and are kept apart here.

Assays:
[1] = molecular target: T1, 1,25-(OH)2 D3 receptors (rat intestine) (Rattus norvegicus, UniProt P13053); assay: Competitive Binding to 1,25-(OH)2 D3 Intestine Receptors, rat; conditions: a/b×100 from amounts displacing 50% of 1,25-(OH)2[3H]D3
T1 construct: receptor prepared from intestine of chick, rat and calf; from tissue; host or cells: rat proximal small-intestine mucosa, cytosol, 35% ammonium sulphate precipitate
T1 sequence (P13053 1-423): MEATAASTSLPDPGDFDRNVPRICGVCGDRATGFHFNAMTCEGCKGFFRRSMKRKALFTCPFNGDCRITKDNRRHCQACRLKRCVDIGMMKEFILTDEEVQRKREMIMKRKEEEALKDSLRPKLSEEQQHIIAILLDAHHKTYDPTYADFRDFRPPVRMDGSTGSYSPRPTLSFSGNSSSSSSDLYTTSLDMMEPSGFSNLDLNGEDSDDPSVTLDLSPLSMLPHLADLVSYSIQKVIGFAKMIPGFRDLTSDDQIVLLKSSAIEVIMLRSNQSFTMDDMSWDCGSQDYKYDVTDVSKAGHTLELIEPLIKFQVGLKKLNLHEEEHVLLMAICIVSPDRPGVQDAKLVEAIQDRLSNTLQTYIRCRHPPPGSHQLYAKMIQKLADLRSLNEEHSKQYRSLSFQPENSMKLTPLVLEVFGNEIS
Procedure: The ability of vitamin D3 metabolites to compete for 1,25-(OH)[^3 H]D3 receptor binding sites was evaluated with receptor prepared from intestine of chick, rat and calf. The receptor was prepared by removing 10-12% of the small intestine immediately adjacent to the pyloric spincter which was washed immediately with cold buffer containing 500 mM KCl, 50 mM Tris, 1.5 mM EDTA, and 5 mM dithiothreitol, pH 7.4 (KTED buffer). Mucosa was collected and washed three times with 10 volumes of cold KTED buffer. The washed mucosa was homogenized in KTED buffer (20% w/v) using a Polytron Pt20 tissue disruptor. Cytosol was prepared by centrifugation of the homogenized mucosa at 300,000×g for 1 hour. Receptor was precipitated from the cytosol by the addition of ammonium sulphate to achieve 35% saturation. The ammonium sulphate treated cytosol was centrifuged at 20,000×g for 10 minutes. The supernatant was discarded and the pellet lyophilized and stored at […] Prior to binding assay the pellet was resuspended in cold binding assay buffer containing 150 mM KCl, 50 mM NaPO4, 1.5 mM EDTA and 5 mM dithiothreitol.

[2] = tested on: intestinal calcium absorption (duodenum); assay: Stimulation of Intestinal Calcium Absorption in Rat (intestinal 45Ca transport, everted gut sac); conditions: intrajugular, 18 h
[3] = tested on: vitamin D deficient rats; conditions: 3 weeks
[4] = tested on: HL-60 promyelocytic leukemia cells; assay: Inhibition of proliferation of HL-60 cells; assay type: cell-based; conditions: Homo sapiens, HL-60, 192 h, 8 days; for inhibition at 0.001 µM: 0.1 × 10^-8 M; for inhibition at 0.01 µM: 1 × 10^-8 M; for inhibition at 0.1 µM: 10 × 10^-8 M; for IC50: from dose response curves, read-out: ID50 (concentration which reduced the cell number by 50%)
Procedure: Inhibition of Cell Proliferation and Induction of Cell Differentiation
Cultures of HL-60 promyelocytic leukemia cells were established in the absence (control) and presence of various concentrations of test compounds. After an 8-day incubation period, the cultures were evaluated for proliferation of tumor cells, cell viability, and cellular differentiation. Proliferation was assessed by directly enumerating the increased number of tumor cells resulting from cell division during incubation. Viability was assessed by dye exclusion technique to learn whether any of the compounds were lethal to the cultured HL-60 cells. Cellular differentiation was evaluated by determining the number of cells which had acquired the enzymes necessary to support a respiratory burst, a characteristic of mature macrophages and granulocytes.
Tissue culture medium used in these experiments was RPMI-1640 supplemented to 10% v/v with heat-inactivated fetal bovine serum and to an additional 1.6 mM with L-glutamine.
Test compounds were dissolved in sufficient ethanol to yield stock solutions of 1×10^-2 or 1×10^-3 molar. Reduced lighting was used when working with compounds and stock solutions were stored in the dark at -20° C. in an argon atmosphere. Compounds were diluted in tissue culture medium and added to flasks containing HL-60 cells to achieve the final concentration described in each test.
The HL-60 tumor cell line was originally derived from a patient with promyelocytic leukemia and was obtained from the American Type Culture Collection. The cells were maintained in liquid culture by serial passage twice weekly in tissue culture medium. […] In any test, three replicate flasks were incubated without compound (control) or in the presence of varying concentrations of test compound. Ethanol, used as the vehicle, was kept constant in all dilutions in each test and had no effect on cell proliferation, viability or cell differentiation at the concentrations used (≤0.1%). After 8 days of incubation at 37° in a humidified atmosphere of 5% CO2 in air, cultures were evaluated for tumor cell proliferation, viability and differentiation.
Quantitation of proliferation was done by enumerating the number of HL-60 cells in each individual flask (3 flasks per experimental point) using an Elzone electronic particle counter. Results are shown as the percent reduction of cell number calculated for each concentration tested according to the formula: [formula] The results are also expressed as the concentration which reduced the cell number by 50% (ID50).

[5] = read-out: % Reduction in cell number

Compound	Competitive Binding to 1,25-(OH)2 D3 Receptors - % of 1,25-(OH)2 D3 Effect, rat intestine [1] [%]	% of 1,25-(OH)2 D3 Effect in Rat, intestinal calcium absorption ([2]; 12.5 ng/rat) [%]	Bone Mass ([3]; daily dose 18 ng) [mm^3 /cm^3]	Serum Ca^2+ ([3]; daily dose 18 ng) [mg/dL]	Serum PO4^2- ([3]; daily dose 18 ng) [mg/dL]	Bone Mass ([3]; daily dose 72 ng)	Serum Ca^2+ ([3]; daily dose 72 ng) [mg/dL]	Serum PO4^2- ([3]; daily dose 72 ng) [mg/dL]	inhibition at 0.0001 µM ([4]; 0.01 × 10^-8 M, read-out: % Reduction in cell number) [%]	inhibition at 0.001 µM [4, 5] [%]	inhibition at 0.01 µM [4, 5] [%]	inhibition at 0.1 µM [4, 5] [%]	IC50 [4] [nM]	% of 1,25-(OH)2 D3 Effect in Rat, intestinal calcium absorption ([2]; 15.5 ng/rat) [%]
C=C1/C(=C\C=C2/CCC[C@]3(C)[C@@H]([C@H](C)CC#CC(O)(C(F)(F)F)C(F)(F)F)CC[C@@H]23)C[C@@H](O)C[C@@H]1O [Compound B]	142	124	385 ± 77	15.63 ± 0.36	7.66 ± 0.17	746 + 48 mm^3 /cm^3	15.23 ± 0.22	6.34 ± 0.26	15	31	85	89	2	–
C=C1/C(=C\C=C2/CCC[C@]3(C)[C@@H]([C@H](C)CC#CC(C)(C)O)CC[C@@H]23)C[C@@H](O)C[C@@H]1O [Compound A, 1α,25-dihydroxy-23-yne-cholecalciferol]	39	–	–	–	–	–	–	–	–	30	67	85	6	95
